Laboratory results published in patent US20020048566A1, “Modulation of cellular apoptosis and methods for treating cancer” (priority 2000, published 2002).
Residues, ends and D or L forms follow the SMILES beside them. *: point of attachment. Cbz = O=C(OCc1ccccc1)*; CH2F = FC*

How the values were obtained:
Format in all cases: cell-based, human
[1] = tested on: adrenal carcinoma cell line SW13; assay: FACS for active caspase 3 after p53 transfection with irreversible caspase inhibitors; conditions: inhibitor 20 μM added four hours after transfection, harvested at 24 hours
Description: Transfections and fluorescence-activated cell sorting (FACS) analysis. Transfections were carried out as previously described (Wu et al., 1997). In brief, before transfection, 5×10^5 cells/6 cm well were seeded. The cells were transfected with lipofectamine Plus. Four hours after transfections the media was changed and an irreversible caspase inhibitor, Z-IETD-FMK (caspase 8) or Z-LEHD-FMK (caspase 9) was added to the media at a final concentration of 20 μM. Cells were harvested 24 hours after transfection and prepared for detection of active-caspase 3 by flow cytometry as previously described (Ozoren et al., 2000). For adenoviral experiments, cells were harvested 48 hours after infection and fixed and stained with propidium iodide as previously described (Ozoren et al., 2000). Cell sorting was performed.
FIG. 5. Infection of colon carcinoma cell line SW480 and breast carcinoma cell line SKBr3 with Ad-p53 results in caspase cleavage and apoptosis. (a) Western blot analysis for PARP cleavage after adenovirus infection. SW480 and SKBr3 cell lines were infected with an MOI of 50 with either Ad-LacZ or Ad-p53 and harvested at 0, 24 and 48 hours after infection. […] (b) Western blot analysis of caspase 8 and 9 cleavage after adenovirus infection. […]

[2] = tested on: SW480 cell lines; assay: FACS sub-G1 content after Ad-p53 infection of SW480 stably overexpressing c-FLIP-s or Bcl-XL; conditions: stable overexpression, 48 hours after infection
From the text: Cell culture and adenoviral/retroviral infection. The culture conditions for SW480, HCT 116, and SkBr3 were maintained as previously described (Wu et al., 1997). The adrenal carcinoma cell line, SW13 was a kind gift from R. Sheikhattar (Wistar Institute). Ad-LacZ and Ad-p53 were obtained from B. Vogelstein (Johns Hopkins University) All adenoviruses were propagated, titered, and amplified as previously described (El-Deiry et al., 1993). The retroviral vector pLIB, pLIB-EGFP, pLIB-c-Flip-s, or pLIB-Bcl-XL was cotransfected with pVSVG and pCgP (Dr. Michael Malim, University of Pennsylvania) into 293T cells using the CaPO4 method. The resulting supernatant was used to infect the SW480 cell line (3×10^5 cell/well plated 48 hours before infection) at a titer necessary to obtain greater than 90% infectivity as previously described (Fouchier et al., 1997).
Transfections and fluorescence-activated cell sorting (FACS) analysis. Transfections were carried out as previously described (Wu et al., 1997). In brief, before transfection, 5×10^5 cells/6 cm well were seeded. The cells were transfected with lipofectamine Plus. Four hours after transfections the media was changed and an irreversible caspase inhibitor, Z-IETD-FMK (caspase 8) or Z-LEHD-FMK (caspase 9) was added to the media at a final concentration of 20 μM. […]

[3] = tested on: SW480 cells; assay: Blue cell assay (cotransfection with pCMVb gal, relative cell survival); conditions: for Blue cells % of vector: blue cells counted after 40 hours, vector-transfected blue cells set to 100% survival
Description: Blue Cell Method. The blue cell method was performed as previously described (Meng, R. D., et al., Mol. Ther. 1:130-144 (2000)). Calculations for Table I were carried out by setting the number of vector-transfected blue cells to 100% (at least 300 cells for each independent experiment), and the wild-type and point mutants were determined as a percentage of vector transfected.
Conserved Hydrophobic Residues Are More Critical for Apoptotic Signaling as Compared with Conserved Charged Positions in the KILLER/DR5 DD. In order to functionally characterize the mutant receptors, this study employed three methods to assess cell death following transfection. The first method involved cotransfection of the mutant receptor along with pCMVb gal. Blue cells were counted after 40 hours in order to determine relative cell survival as compared with vector-transfected cells (number of blue cells for vector was set as equivalent to 100% survival; Table I). To specifically measure apoptosis, this study used a cotransfection based flow cytometric assay to functionally assess apoptotic signaling of each substitution mutant. Each mutant was cotransfected with an EGFP-spectrin construct at a 10:1 ratio (mutant plasmid:EGFP-spectrin plasmid) into SW480 cells for 18 hours and the presence of a sub-G1 peak was used to quantitate apoptotic signaling. The use of the spectrinbound GFP allowed for the identification of specifically transfected cells, and the spectrin fusion permits cell membrane retention of GFP even if cells lose membrane permeability due to cell death (Kalejta, R. F., et al., Mol. Ther. 1:130-144 (2000)). […] One example of a signaling-competent and -incompetent mutant is also shown for comparison. Table II lists the results of three independent experiments for each mutant compared with the wild-type protein after subtracting out transfection-induced death.

[4] = tested on: SW480 cells; assay: GFP-spectrin/PI flow cytometry for sub-G1 peak after transient transfection; design: key to Apoptotic ability (Table II): WT, able to induce apoptosis as well as wild-type protein; ±, 20-25% reduction in ability to induce apoptosis; −, completely deficient in ability to induce apoptosis
Description: GFP/PI Fluorescence-activated Cell Sorting Analysis for Sub-G1 Peak. SW480 cells were transfected with a 1:10 ratio of EGFP-spectrin (Kalejta, R. F., et al., Mol. Ther. 1:130-144 (2000)) and KILLER/DR5 expression plasmid. Transfections were harvested at 18 hours after transfection, processed, and analyzed for the presence of a sub-G1 peak as described previously (Ozoren, N., et al., Int. J. Oncol. 16:917-925 (2000)). 10,000 GFP-positive cells were analyzed per experiment, and three independent experiments were performed for each mutant. Percentage of apoptosis was calculated by subtracting transfection-induced sub-G1 peak (vector transfection) from each wild-type or mutant KILLER/DR5 sub-G1 peak. Figures for Tables II and III were generated by setting wild-type death to 100% (˜40% sub-G1 peak at 18 hours) in order to compare point mutants to the wild-type protein.
(§1) Conserved Hydrophobic Residues Are More Critical for Apoptotic Signaling as Compared with Conserved Charged Positions in the KILLER/DR5 DD. In order to functionally characterize the mutant receptors, this study employed three methods to assess cell death following transfection. The first method involved cotransfection of the mutant receptor along with pCMVb gal. Blue cells were counted after 40 hours in order to determine relative cell survival as compared with vector-transfected cells (number of blue cells for vector was set as equivalent to 100% survival; Table I). To specifically measure apoptosis, this study used a cotransfection based flow cytometric assay to functionally assess apoptotic signaling of each substitution mutant. Each mutant was cotransfected with an EGFP-spectrin construct at a 10:1 ratio (mutant plasmid:EGFP-spectrin plasmid) into SW480 cells for 18 hours and the presence of a sub-G1 peak was used to quantitate apoptotic signaling. […]

[5] = tested on: SW480 cells; assay: PARP cleavage Western blot after transient transfection; conditions: 16 hours after transfection
Description: Transfections, in Vitro Translation, and Western Blotting. The colon cancer cell line SW480 was maintained and transfected as described previously (Wu, G. S., et al., Nat. Genet. 17:141-143 (1997)). Protein extracts were harvested in 1×Laemmli sample buffer 16 hours after transfection. PARP and Myc immunoblots were performed following SDS-polyacrylamide gel electrophoresis. Horseradish peroxidase-conjugated secondary antibody (1:5000) treatments were followed by enhanced chemiluminescence. In vitro translation reactions were carried out using 1 μg of wild-type or mutant KILLER/DR5 plasmid DNA and a T7-coupled reticulocyte lysate system.
as §1, with “The first method involved cotransfection of the mutant receptor along with pCMVb gal.” left out, “To specifically measure apoptosis, this study used a cotransfection based flow cytometric assay to functionally assess apoptotic signaling of each substitution mutant.” left out

[6] = tested on: TRAIL DISC (FADD and caspase 8 recruitment) in 293 HEK cells; assay: TRAIL DISC immunoprecipitation; conditions: 16 hours transfection, then 50 ng/ml His-tagged TRAIL 15 minutes at 37° C.
Description: TRAIL DISC Immunoprecipitation. 293 HEK cells were plated to achieve 80% confluence at the time of transfection in a T75. 30 ug of the indicated KILLER/DR5 plasmid was transfected by calcium phosphate for 16 hours to minimize loss of transfected cells. The cells were then trypsinized, spun down, and resuspended in 2 ml of complete medium supplemented with 50 ng/ml His tagged-TRAIL and 1 μg/ml anti-6-histidine antibody for 15 minutes at 37° C. For untreated samples, only the TRAIL was excluded. The cells were washed twice with ice-cold phosphate-buffered saline and lysed for 30 minutes on ice in TRAIL DISC IP lysis buffer (30 mM Tris, pH 7.5, 150 mM NaCl, 10% glycerol, 1% Triton X-100). The lysates were cleared twice by centrifugation at 4° C. The supernatants were immunoprecipitated overnight with 30 μl of agarose at 4° C. to isolate the TRAIL DISC. The complexes were subsequently washed four times with TRAIL DISC IP lysis buffer and eluted with elution buffer with 0.1 M dithiothreitol at room temperature for 2 hours. The protein complexes were methanol/chloroform-precipitated and resolved on 15% SDS-polyacrylamide gels. […]
293 HEK cells were chosen due to their ability to be transfected and relative resistance to TRAIL-induced apoptosis. […] The DISC was then immunoprecipitated and analyzed for the presence of the exogenous KILLER/DR5 receptor along with FADD and caspase 8. […]

## CC[C@H](C)[C@H](NC(=O)OCc1ccccc1)C(=O)N[C@@H](CCC(=O)OC)C(=O)N[C@H](C(=O)N[C@@H](CC(=O)OC)C(=O)CF)[C@@H](C)O [Z-IETD-FMK] (Cbz-IE(OMe)TD(OMe)-CH2F)
[1]
  inhibition of p53-dependent apoptosis (activated caspase 3): could be inhibited

## COC(=O)CC[C@H](NC(=O)[C@H](CC(C)C)NC(=O)OCc1ccccc1)C(=O)N[C@@H](Cc1cnc[nH]1)C(=O)N[C@@H](CC(=O)OC)C(=O)CF [Z-LETD-FMK, Z-LEHD-FMK] (Cbz-LE(OMe)HD(OMe)-CH2F)
[1]
  inhibition of p53-dependent apoptosis (activated caspase 3): could be inhibited

## Bcl-XL: stably over-expressed Bcl-XL, specific inhibitor of caspase 9 activation
[2]
  inhibition of p53-mediated death after Ad-p53 infection (sub-G1): partially inhibit

## K388A: KILLER/DR5 death domain alanine point mutant
[3]
  Blue cells % of vector: 9 ± 1.5 % of vector
[4]; 18 hours after transfection
  Apoptotic ability (Table II): WT
[4]; 18 hours after transfection, transfection-induced death subtracted, wild-type death set to 100%, three independent experiments
  Sub-G1 peak % WT (alanine scanning mutants): 101 ± 11.3 % WT

## Wild-type KILLER/DR5: wild-type TRAIL receptor KILLER/DR5, Myc-His tagged expression construct
[3]
  Blue cells % of vector: 8 ± 0.2 % of vector
[3]; text summary of Table I
  blue cell staining retained: 8%
[4]; at 18 hours, absolute value set as 100% wild-type death
  sub-G1 peak: ~40%
[5]
  PARP cleavage: efficiently caused PARP cleavage
[6]
  FADD and caspase 8 recruitment to TRAIL DISC: robust recruitment of both FADD and caspase 8
